Literature values, collected in US7988998B2, “Sustained-release tramadol formulations with 24-hour efficacy” (Labopharm Inc., priority 2002, dated 2011).
Where a name gives a salt, the structure may show the parent alone.

Settings: patients receiving tramadol HCl

COc1cccc(C2(O)CCCCC2CN(C)C)c1 (stereo not shown) [tramadol HCl, Tramadol hydrochloride]
estimated incidence of seizures: less than 1%
